Results taken from ChEMBL document CHEMBL1201862, “PubChem BioAssay data set” (2004).
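Protocol summary: plate cells (96-well), add compound at 5 concentrations, incubate 48 h, interpolate endpoints linearly. Abbreviation: GI50, concentration required for 50% inhibition of growth.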 Activity calls are given as the source filed them. Rule as the data show it: active = GI50 up to about 1.1 µM and inactive = higher.

What was measured:
Assay in all cases: NCI anticancer screen, dose series, 48 h
ACHN = tested on: ACHN
CCRF-CEM = tested on: CCRF-CEM
DU-145 = tested on: DU-145
HL-60 = tested on: HL-60
HOP-62 = tested on: HOP-62
K562 = tested on: K562
M14 = tested on: M14
MDA-MB-231 = tested on: MDA-MB-231
MDA-MB-435 = tested on: MDA-MB-435
NCI-H460 = tested on: NCI-H460
OVCAR-5 = tested on: OVCAR-5
PC-3 = tested on: PC-3
RPMI-8226 = tested on: RPMI-8226
SF-268 = tested on: SF-268
SN12C = tested on: SN12C
SR = tested on: SR
UACC-62 = tested on: UACC-62
HOP-92 = tested on: HOP-92
SF-539 = tested on: SF-539
TK-10 = tested on: TK-10

Measured: GI50

CCN(CC)C(=O)N[C@@H](Cc1ccccc1)C(=O)NC
inactive: ACHN > 100 µM | CCRF-CEM > 100 µM | DU-145 > 100 µM | HL-60 > 100 µM | HOP-62 > 100 µM | K562 > 100 µM | M14 > 100 µM | MDA-MB-231 > 100 µM | MDA-MB-435 > 100 µM | NCI-H460 > 100 µM | OVCAR-5 > 100 µM | PC-3 > 100 µM | RPMI-8226 > 100 µM | SF-268 > 100 µM | SN12C > 100 µM | SR > 100 µM | UACC-62 > 100 µM

N#CCCCCC12C3C(=O)N(c4ccccc4)C(=O)C3ON1O[C@@H]1C(=O)N(c3ccccc3)C(=O)[C@@H]12 (some centres undefined)
inactive: ACHN > 100 µM | CCRF-CEM > 100 µM | DU-145 > 100 µM | HL-60 > 100 µM | HOP-62 > 100 µM | HOP-92 > 100 µM | K562 > 100 µM | M14 > 100 µM | MDA-MB-231 > 100 µM | MDA-MB-435 > 100 µM | NCI-H460 > 100 µM | OVCAR-5 > 100 µM | PC-3 > 100 µM | SF-268 > 100 µM | SF-539 > 100 µM | SN12C > 100 µM | TK-10 > 100 µM | UACC-62 > 100 µM

O=C(Nc1ccccc1)OCCN=C1c2ccccc2C(Br)C(Br)c2ccccc21 (centres undefined)
inactive: ACHN 10.2 µM | CCRF-CEM 1.49 µM | DU-145 9.16 µM | HL-60 1.92 µM | HOP-62 15.1 µM | HOP-92 8.81 µM | K562 2.8 µM | M14 4.34 µM | MDA-MB-231 15.2 µM | MDA-MB-435 7.93 µM | NCI-H460 12.1 µM | OVCAR-5 16 µM | PC-3 19.3 µM | RPMI-8226 4.37 µM | SF-268 10.5 µM | SF-539 5.07 µM | SN12C 11.1 µM | TK-10 4.48 µM | UACC-62 11 µM

CCNc1nc(N)c(C(=O)c2ccc(Cl)cc2)s1
inactive: ACHN 23.7 µM | CCRF-CEM 5.75 µM | DU-145 32.7 µM | HL-60 13.6 µM | HOP-62 44.2 µM | HOP-92 > 100 µM | K562 29.3 µM | M14 44.6 µM | MDA-MB-231 > 100 µM | MDA-MB-435 32.2 µM | NCI-H460 18.8 µM | OVCAR-5 32.7 µM | PC-3 39.9 µM | RPMI-8226 30.3 µM | SF-268 30.7 µM | SF-539 33 µM | SN12C 49.7 µM | TK-10 14.3 µM | UACC-62 45.5 µM

CC(=O)OC(/C=C/c1ccccc1)=C(OC(C)C)/C1=C(\c2ccccc2)SCCCSC1=O
inactive: ACHN > 100 µM | CCRF-CEM 91 µM | DU-145 > 100 µM | HL-60 49.8 µM | HOP-62 > 100 µM | HOP-92 > 100 µM | K562 > 100 µM | M14 > 100 µM | MDA-MB-231 > 100 µM | MDA-MB-435 > 100 µM | NCI-H460 > 100 µM | OVCAR-5 > 100 µM | PC-3 > 100 µM | RPMI-8226 35.6 µM | SF-268 > 100 µM | SF-539 > 100 µM | TK-10 > 100 µM | UACC-62 63 µM

O=C1CC2(CCCc3sccc32)C(=O)N1 (centres undefined)
inactive: ACHN > 100 µM | CCRF-CEM > 100 µM | DU-145 > 100 µM | HL-60 > 100 µM | HOP-62 > 100 µM | HOP-92 > 100 µM | K562 > 100 µM | M14 > 100 µM | MDA-MB-231 > 100 µM | MDA-MB-435 > 100 µM | NCI-H460 > 100 µM | OVCAR-5 > 100 µM | PC-3 > 100 µM | RPMI-8226 > 100 µM | SF-268 > 100 µM | SF-539 > 100 µM | SN12C > 100 µM | TK-10 > 100 µM | UACC-62 > 100 µM

CC1=CC(=O)/C(=C/N2CCNC2=S)C(=O)O1
inactive: ACHN > 100 µM | CCRF-CEM > 100 µM | DU-145 > 100 µM | HL-60 > 100 µM | HOP-62 > 100 µM | HOP-92 > 100 µM | K562 > 100 µM | M14 > 100 µM | MDA-MB-231 > 100 µM | MDA-MB-435 > 100 µM | NCI-H460 > 100 µM | OVCAR-5 > 100 µM | PC-3 > 100 µM | RPMI-8226 > 100 µM | SF-268 > 100 µM | SF-539 > 100 µM | SN12C > 100 µM | TK-10 > 100 µM | UACC-62 > 100 µM
